Assay results as given in patent US10858364B2, “Imidazopyrazine inhibitors of Bruton's tyrosine kinase” (Acerta Pharma B.V., priority 2016, dated 2020).

What was measured:
[1] = Clinical pharmacokinetics of acalabrutinib and its major metabolite; format: in vivo, human
Excerpt: The compound of Formula (I) was identified as the major metabolite in plasma with a geometric mean exposure (AUC) approximately 2- to 3-fold higher than the exposure of acalabrutinib.
Acalabrutinib and the major metabolite form a covalent bond with a cysteine residue in the BTK active site, leading to inhibition of BTK enzymatic activity. Acalabrutinib binding with the cysteine residue occurs rapidly and irreversibly and provides high target occupancy at steady state.

CYP3A4/5 = test: CYP inhibition, CYP3A4/5; format: in vitro ADME
CYP2C8 = CYP2C8 (Homo sapiens (Human), UniProt P10632); test: CYP inhibition, CYP2C8; format: in vitro ADME
Chain of CYP2C8 (P10632 whole entry): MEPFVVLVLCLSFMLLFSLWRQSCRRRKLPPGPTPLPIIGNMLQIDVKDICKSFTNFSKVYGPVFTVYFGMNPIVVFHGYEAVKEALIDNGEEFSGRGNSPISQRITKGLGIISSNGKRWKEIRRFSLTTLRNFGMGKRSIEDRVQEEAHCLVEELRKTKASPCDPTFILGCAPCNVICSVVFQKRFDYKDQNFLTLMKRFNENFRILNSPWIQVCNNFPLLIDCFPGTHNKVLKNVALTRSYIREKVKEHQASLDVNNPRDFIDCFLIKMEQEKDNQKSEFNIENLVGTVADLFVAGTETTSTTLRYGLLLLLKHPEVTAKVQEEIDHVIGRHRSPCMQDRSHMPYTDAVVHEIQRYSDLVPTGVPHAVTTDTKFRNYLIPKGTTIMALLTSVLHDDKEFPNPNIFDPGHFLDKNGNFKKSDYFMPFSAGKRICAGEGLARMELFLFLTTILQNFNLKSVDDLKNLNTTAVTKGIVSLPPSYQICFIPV

CYP2C9 = CYP2C9 (Homo sapiens (Human), UniProt P11712); test: CYP inhibition, CYP2C9; format: in vitro ADME
Chain of CYP2C9 (P11712 whole entry): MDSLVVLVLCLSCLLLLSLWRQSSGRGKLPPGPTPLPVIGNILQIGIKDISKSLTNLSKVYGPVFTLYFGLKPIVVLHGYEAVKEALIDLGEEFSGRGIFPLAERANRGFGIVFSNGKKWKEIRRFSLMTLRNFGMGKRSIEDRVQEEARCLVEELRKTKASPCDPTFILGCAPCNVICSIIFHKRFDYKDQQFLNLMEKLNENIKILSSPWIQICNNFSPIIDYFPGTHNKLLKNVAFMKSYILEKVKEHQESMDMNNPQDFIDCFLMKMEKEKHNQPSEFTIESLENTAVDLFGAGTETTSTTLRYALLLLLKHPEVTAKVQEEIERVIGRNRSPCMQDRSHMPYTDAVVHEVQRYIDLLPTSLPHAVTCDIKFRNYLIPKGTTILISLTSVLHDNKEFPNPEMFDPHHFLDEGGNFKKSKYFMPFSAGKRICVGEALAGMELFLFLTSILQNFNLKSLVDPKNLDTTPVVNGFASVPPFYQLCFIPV

CYP2B6 [2] = biological target: CYP2B6 (Homo sapiens (Human), UniProt P20813); test: CYP inhibition, CYP2B6; format: in vitro ADME
Chain of CYP2B6 (Homo sapiens (Human), UniProt P20813) (P20813 whole entry): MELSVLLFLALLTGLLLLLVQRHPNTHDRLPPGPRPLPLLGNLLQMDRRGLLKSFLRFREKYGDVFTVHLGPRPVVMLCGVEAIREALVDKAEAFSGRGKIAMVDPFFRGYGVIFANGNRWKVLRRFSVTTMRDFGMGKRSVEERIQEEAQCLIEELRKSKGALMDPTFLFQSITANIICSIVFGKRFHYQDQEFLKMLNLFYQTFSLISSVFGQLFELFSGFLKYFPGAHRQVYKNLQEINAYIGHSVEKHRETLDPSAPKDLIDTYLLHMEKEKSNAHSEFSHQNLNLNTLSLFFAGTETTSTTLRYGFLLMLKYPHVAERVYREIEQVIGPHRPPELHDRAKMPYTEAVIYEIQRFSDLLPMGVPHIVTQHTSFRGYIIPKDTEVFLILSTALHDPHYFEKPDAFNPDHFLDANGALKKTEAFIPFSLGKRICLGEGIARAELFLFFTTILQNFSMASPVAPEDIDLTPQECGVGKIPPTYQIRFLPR

CYP2C19 = CYP2C19 (Homo sapiens (Human), UniProt P33261); test: CYP inhibition, CYP2C19; format: in vitro ADME
Chain of CYP2C19 (P33261 whole entry): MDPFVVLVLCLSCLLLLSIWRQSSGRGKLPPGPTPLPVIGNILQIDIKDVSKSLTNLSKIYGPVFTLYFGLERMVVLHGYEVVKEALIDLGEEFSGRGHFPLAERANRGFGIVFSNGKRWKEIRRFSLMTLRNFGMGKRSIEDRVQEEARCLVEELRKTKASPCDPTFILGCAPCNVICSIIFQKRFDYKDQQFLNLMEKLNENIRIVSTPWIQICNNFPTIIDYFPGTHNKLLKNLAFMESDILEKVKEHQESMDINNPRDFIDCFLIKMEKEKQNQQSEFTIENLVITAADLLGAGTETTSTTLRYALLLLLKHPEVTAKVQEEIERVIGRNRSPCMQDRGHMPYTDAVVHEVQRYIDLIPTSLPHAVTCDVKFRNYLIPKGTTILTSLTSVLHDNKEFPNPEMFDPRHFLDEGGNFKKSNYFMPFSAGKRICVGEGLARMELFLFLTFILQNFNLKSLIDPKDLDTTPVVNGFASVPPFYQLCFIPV

CYP2D6 = CYP2D6 (Homo sapiens (Human), UniProt P10635); test: CYP inhibition, CYP2D6; format: in vitro ADME
Chain of CYP2D6 (P10635 whole entry): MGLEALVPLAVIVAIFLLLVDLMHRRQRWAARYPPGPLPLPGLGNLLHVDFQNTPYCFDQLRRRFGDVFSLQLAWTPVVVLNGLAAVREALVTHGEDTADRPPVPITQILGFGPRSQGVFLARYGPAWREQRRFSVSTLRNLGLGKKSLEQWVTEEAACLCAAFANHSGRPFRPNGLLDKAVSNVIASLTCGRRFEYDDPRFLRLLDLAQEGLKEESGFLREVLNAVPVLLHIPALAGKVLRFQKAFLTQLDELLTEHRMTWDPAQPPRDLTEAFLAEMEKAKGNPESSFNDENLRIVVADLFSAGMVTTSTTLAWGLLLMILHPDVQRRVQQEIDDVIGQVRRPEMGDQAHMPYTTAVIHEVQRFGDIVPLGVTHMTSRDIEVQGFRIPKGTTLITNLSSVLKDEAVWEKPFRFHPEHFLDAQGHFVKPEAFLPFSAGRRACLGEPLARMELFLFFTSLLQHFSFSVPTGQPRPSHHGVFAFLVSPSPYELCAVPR

CYP1A2 [3] = test: CYP induction, CYP1A2; format: in vitro ADME
CYP2B6 [4] = test: CYP induction, CYP2B6; format: in vitro ADME
CYP3A4 = test: CYP induction, CYP3A4; format: in vitro ADME
CYP3A enzymes = test: In vitro metabolism studies; format: in vitro ADME
CYP1A2 [5] = biological target: CYP1A2 (Homo sapiens (Human), UniProt P05177)
Chain of CYP1A2 (Homo sapiens (Human), UniProt P05177) (P05177 whole entry): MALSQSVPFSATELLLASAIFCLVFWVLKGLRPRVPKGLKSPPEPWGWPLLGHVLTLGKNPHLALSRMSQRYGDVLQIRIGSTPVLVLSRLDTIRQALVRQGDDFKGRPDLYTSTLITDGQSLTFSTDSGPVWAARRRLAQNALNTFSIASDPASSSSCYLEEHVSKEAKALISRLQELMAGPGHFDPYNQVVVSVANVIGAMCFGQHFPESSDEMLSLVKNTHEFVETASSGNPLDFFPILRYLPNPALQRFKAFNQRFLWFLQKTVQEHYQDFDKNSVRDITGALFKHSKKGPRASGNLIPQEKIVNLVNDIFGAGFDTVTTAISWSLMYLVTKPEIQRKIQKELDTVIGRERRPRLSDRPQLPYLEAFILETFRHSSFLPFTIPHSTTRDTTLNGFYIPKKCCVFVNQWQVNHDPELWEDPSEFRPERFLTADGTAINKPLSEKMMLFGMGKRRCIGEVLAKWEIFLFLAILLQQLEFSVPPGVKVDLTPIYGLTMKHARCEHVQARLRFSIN

half-life ([1]; human, in vivo, single oral dose of 100 mg acalabrutinib, read-out: median terminal elimination half-life (t½) (converted)): 54 min
mean apparent oral clearance (CL/F) ([1]; population pharmacokinetics analysis): 159 L/h
CYP3A4/5 inhibition (CYP3A4/5): weak inhibitor
CYP2C8 inhibition (CYP2C8): weak inhibitor
CYP2C9 inhibition (CYP2C9): weak inhibitor
CYP2B6 inhibition (CYP2B6 [2]): does not inhibit
CYP2C19 inhibition (CYP2C19): does not inhibit
CYP2D6 inhibition (CYP2D6): does not inhibit
CYP1A2 induction (CYP1A2 [3]): weak inducer
CYP2B6 induction (CYP2B6 [4]): weak inducer
CYP3A4 induction (CYP3A4): weak inducer
CYP1A2 inhibition (CYP1A2 [5]): does not inhibit
Compound: CC#CC(=O)N1CCC[C@H]1c1nc(-c2ccc(C(=O)Nc3ccccn3)cc2)c2c(N)nccn12 [acalabrutinib, reference compound]
metabolic route (CYP3A enzymes): predominantly metabolized by CYP3A enzymes
